This is an account of results in patent publication US7625713B2, “Process for identifying a ligand that binds to the NEP binding site for the SMR1 pentapeptide” (Institut Pasteur, priority 2000, dated 2009).

SMILES strings stand for the structures. “Also recorded” adds a separate entry of the source. Where a SMILES comes first, the peptide text is derived from it.

For the assay, the target named is T1, NEP (Rattus norvegicus, UniProt P07861).
T1 construct: incubations of membrane and fresh tissue slice preparations from nervous tissues; from tissue; host or cells: dorsal spinal cord of male Wistar rats (fresh slices or 100 000 x g membrane fraction)
T1 sequence (P07861 1-750): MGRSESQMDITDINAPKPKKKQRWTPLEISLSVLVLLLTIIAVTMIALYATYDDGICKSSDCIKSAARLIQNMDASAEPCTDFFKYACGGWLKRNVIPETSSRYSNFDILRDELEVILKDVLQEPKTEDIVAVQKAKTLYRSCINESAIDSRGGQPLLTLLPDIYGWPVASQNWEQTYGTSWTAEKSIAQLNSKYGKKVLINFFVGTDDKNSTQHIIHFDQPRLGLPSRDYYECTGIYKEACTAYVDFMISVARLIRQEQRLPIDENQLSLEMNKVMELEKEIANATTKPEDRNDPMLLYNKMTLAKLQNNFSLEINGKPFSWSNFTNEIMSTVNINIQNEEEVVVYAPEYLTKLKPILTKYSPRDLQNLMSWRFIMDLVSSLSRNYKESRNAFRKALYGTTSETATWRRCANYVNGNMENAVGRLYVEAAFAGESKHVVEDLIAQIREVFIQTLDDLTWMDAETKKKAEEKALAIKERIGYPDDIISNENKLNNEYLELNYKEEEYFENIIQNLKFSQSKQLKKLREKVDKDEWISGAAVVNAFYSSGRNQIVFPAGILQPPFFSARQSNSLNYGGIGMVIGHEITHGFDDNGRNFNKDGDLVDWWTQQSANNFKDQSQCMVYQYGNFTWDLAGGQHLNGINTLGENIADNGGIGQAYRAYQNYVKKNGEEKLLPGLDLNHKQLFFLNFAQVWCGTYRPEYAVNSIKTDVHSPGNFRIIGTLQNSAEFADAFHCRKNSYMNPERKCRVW
As to the kind of experiment: 3H-Substance P hydrolysis by rat spinal cord membrane preparations. The class given is biochemical. How it is done:
FIG. 1-A: Influence of spinal cord membrane protein concentration on Substance P hydrolysis (25 nM) in the presence or absence of the synthetic NEP inhibitor, Phosphoramidon, 10 μM. Each point represents the percent of 3H-substance P hydrolyzed by spinal cord membrane incubated 15 min. at 30° C. in a 250 μl final volume of Tris/HCl buffer. […] Each point represents the percent of 3H-substance P hydrolyzed by 250 μg membrane proteins incubated at 25° C. in a 250 μl final volume of Tris/HCl buffer. FIG. 3-B: Concentration-dependent inhibition by […] NO: 2) of 3H-Substance P (12.5 nM) catabolism by rat spinal cord membrane preparations. Comparison with-a NEP inhibitor, Phosphoramidon and, -CPB and DPPIV inhibitors, […] inhibitor. Comparison between the inhibitory activity exerted by […] NO: 2) peptide alone or in combination with CPB and DPPIV inhibitors. […] The metabolism rate of the NEP-sensitive peptides was measured using the both NEP substrates involved in the signaling of the nociceptive response: the neuropeptides Met-enkephalin and Substance P. […] The temperature and the time of the incubation as well as the concentration of substrate and of membrane enzyme are defined according to the results such as the NEP hydrolysis activity will be measured under conditions of initial velocity. […] The radioactivity of eluted and isolated compounds is determined by liquid scintillation spectrometry.

Turning to `N=C(N)NCCC[C@H](NC(=O)[C@@H]1CCCN1C(=O)[C@H](CC(N)=O)NC(=O)[C@H](Cc1c[nH]cn1)NC(=O)[C@@H](N)CCC(N)=O)C(=O)O` [sialorphin, Gln-His-Asn-Pro-Arg] (H-QHNPR-OH; N-terminus and C-terminus assumed), the “inhibitory potency / protection of Substance P compared with reference NEP inhibitors” value (peptide alone, listed as SMR1-QHNPR) was “equivalent t0 that obtained with Phosphoramidon; also recorded: equivalent to that of two well-known NEP-specific inhibitors, Thiorphan and Phosphoramidon”. Also, under “peptide combined with the inhibitors of CPB and DPPIV”, the “NEP inhibiting activity compared with phosphoramidon” value is “greater than that of phosphoramidon”.
